Laboratory results taken from US20240002350A1, “PROTEIN AND LIPID THERAPEUTIC TARGETS” (UNIVERSITY OF PITTSBURGH-OF THE COMMONWEALTH SYSTEM OF …, priority 2020, published 2024).

System: 15LOX/PEBP1
Assay: Potency of 15LOX/PEBP1 inhibitors with anti-ferroptotic effect (Table 1)
Format: cell-based
Details: not given
Excerpt: Development and testing of new compounds that inhibit 15LOX/PEBP1 complex activity. A combination of computational and experimental studies are used. […] Computer modeling considers specific features of organization of 15LOX/PEBP1 complexes and positioning of AA-PE as well as regio-specific oxygenation of AA-residues at 15th carbon. […] It has been shown that: i) binding interface of 15LOX in 15LOX/PEBP1 complex includes a helix on 15LOX (α2) and kinase binding epitope (D144, H145, R146) on PEBP1 (FIG. 8); and ii) interfacial interactions play a pivotal role in allosterically altering conformational dynamics of 15LOX in complex, and its substrate specificity. Analysis of change in access to catalytic site upon PEBP1 binding, using elastic network models indicates needed sites at 15LOX/PEBP1 binding interface. Dynamics simulations are also performed, for 15LOX alone and 15LOX/PEBP1 complex. An effective inhibitor, NCG-01, with in vivo activity has been indicated. Several other 15LOX/PEBP1 inhibitors with anti-ferroptotic effect (FIG. 9) have been identified. To test the effectiveness of compounds identified from the computational screen, RSL3 and mechanical stretch models with LDH and PI assays as a primary outcome are performed. The compounds that inhibit cell death by at least 50% are then evaluated for their effects on AA-PE and AA oxidation by 15LOX/PEBP1 complex and 15LOX alone, respectively, by LC-MS. Evaluation of the effect of compounds in suppressing AA-PE-OOH formation in cells upon proferroptotic stimuli is also performed.

Row | Compound | Potency
1 | NC(=O)c1ccc(CSc2nc(-c3ccccc3)cn2-c2cccc(F)c2)cc1 [Compound 50, 4-(((1-(3-fluorophenyl)-4-phenyl-1H-imidazol-2-yl)thio)methyl)benzamide] | + (+ > 1 μM)
2 | Fc1cccc(-n2cc(-c3ccccc3)nc2SCc2ccc(OC(F)F)cc2)c1 [Compound 51, 2-((4-(difluoromethoxy)benzyl)thio)-1-(3-fluorophenyl)-4-phenyl-1H-imidazole] | + (+ > 1 μM)
3 | Fc1cccc(-n2cc(-c3ccccc3)nc2SCc2ccc(C(F)F)cc2)c1 [Compound 52, 2-((4-(difluoromethyl)benzyl)thio)-1-(3-fluorophenyl)-4-phenyl-1H-imidazole] | + (+ > 1 μM)
4 | CC(C)(C)OC(=O)Nc1ccc(CSc2nc(-c3ccccc3)cn2-c2cccc(F)c2)cc1 [Compound 53, tert-butyl (4-(((1-(3-fluorophenyl)-4-phenyl-1H-imidazol-2-yl)thio)methyl)phenyl)carbamate] | + (+ > 1 μM)
5 | CC(Sc1nc(-c2ccccc2)cn1-c1cccc(F)c1)c1ccc(C(F)(F)F)cc1 (centres unmarked) [Compound 54, 1-(3-fluorophenyl)-4-phenyl-2-((1-(4-(trifluoromethyl)phenyl)ethyl)thio)-1H-imidazole] | + (+ > 1 μM)
6 | N#Cc1ccc(CSc2nc(-c3ccccc3)cn2-c2cccc(F)c2)cc1 [Compound 55, 4-(((1-(3-fluorophenyl)-4-phenyl-1H-imidazol-2-yl)thio)methyl)benzonitrile] | + (+ > 1 μM)
7 | N#Cc1ccc(CNc2nc(-c3ccccc3)cn2-c2cccc(F)c2)cc1 [Compound 56, 4-(((1-(3-fluorophenyl)-4-phenyl-1H-imidazol-2-yl)amino)methyl)benzonitrile] | ++ (++ = 101-1000 nM)
8 | Cc1cccc(CNc2nc(-c3ccccc3)cn2-c2cccc(F)c2)c1 [Compound 57, 1-(3-fluorophenyl)-N-(3-methylbenzyl)-4-phenyl-1H-imidazol-2-amine] | ++ (++ = 101-1000 nM)
9 | Fc1cccc(-n2cc(-c3ccccc3)nc2NCc2cccc(C(F)(F)F)c2F)c1 [Compound 58, N-(2-fluoro-3-(trifluoromethyl)benzyl)-1-(3-fluorophenyl)-4-phenyl-1H-imidazol-2-amine] | ++ (++ = 101-1000 nM)
10 | Fc1cccc(-n2cc(-c3ccccc3)nc2NCc2ccc(Cl)cc2)c1 [Compound 59, N-(4-chlorobenzyl)-1-(3-fluorophenyl)-4-phenyl-1H-imidazol-2-amine] | ++ (++ = 101-1000 nM)
11 | Fc1cccc(-n2cc(-c3ccccc3)nc2NCc2ccccc2)c1 [Compound 61, N-benzyl-1-(3-fluorophenyl)-4-phenyl-1H-imidazol-2-amine] | ++ (++ = 101-1000 nM)
12 | COc1cccc(CNc2nc(-c3ccccc3)cn2-c2cccc(F)c2)c1 [Compound 62, 1-(3-fluorophenyl)-N-(3-methoxybenzyl)-4-phenyl-1H-imidazol-2-amine] | ++ (++ = 101-1000 nM)
13 | Fc1cccc(-n2cc(-c3ccccc3)nc2NCc2cccc(C(F)(F)F)c2)c1 [Compound 63, 1-(3-fluorophenyl)-4-phenyl-N-(3-(trifluoromethyl)benzyl)-1H-imidazol-2-amine] | ++ (++ = 101-1000 nM)
14 | Fc1cccc(-n2cc(-c3ccccc3)nc2NCc2ccc(F)c(F)c2)c1 [Compound 64, N-(3,4-difluorobenzyl)-1-(3-fluorophenyl)-4-phenyl-1H-imidazol-2-amine] | ++ (++ = 101-1000 nM)
15 | Fc1cccc(-n2cc(-c3ccc(Br)cc3)nc2SCc2ccc(C3(C(F)(F)F)N=N3)cc2)c1 [Compound 65, 4-(4-bromophenyl)-1-(3-fluorophenyl)-2-((4-(3-(trifluoromethyl)-3H-diazirin-3-yl)benzyl)thio)-1H-imidazole] | + (+ > 1 μM)
16 | Fc1cccc(-n2cc(-c3ccccc3)nc2NCc2ccc(C(F)(F)F)c(Br)c2)c1 [Compound 66, N-(3-bromo-4-(trifluoromethyl)benzyl)-1-(3-fluorophenyl)-4-phenyl-1H-imidazol-2-amine] | ++ (++ = 101-1000 nM)
17 | COc1cc(CNc2nc(-c3ccccc3)cn2-c2cccc(F)c2)ccc1C(F)(F)F [Compound 67, 1-(3-fluorophenyl)-N-(3-methoxy-4-(trifluoromethyl)benzyl)-4-phenyl-1H-imidazol-2-amine] | ++ (++ = 101-1000 nM)
18 | Fc1cccc(-n2cc(-c3ccccc3)nc2NCc2ccc(C(F)(F)F)c(Cl)c2)c1 [Compound 68, N-(3-chloro-4-(trifluoromethyl)benzyl)-1-(3-fluorophenyl)-4-phenyl-1H-imidazol-2-amine] | ++ (++ = 101-1000 nM)
19 | Cc1cc(CNc2nc(-c3ccccc3)cn2-c2cccc(F)c2)ccc1C(F)(F)F [Compound 69, 1-(3-fluorophenyl)-N-(3-methyl-4-(trifluoromethyl)benzyl)-4-phenyl-1H-imidazol-2-amine] | ++ (++ = 101-1000 nM)

System: PND17 rats
Assay: Controlled cortical impact (CCI) TBI model in PND17 rats
Format: in vivo, rat
Details: 50 mg/kg i.p. 15 min after CCI
Description: (§1) Time course studies (0, 4, 8, 24 and 72 h) of TBI-induced changes in i) PE oxidation (oxidative lipidomics); ii) expression and activity of 15LOX, PEBP1, ACSL4, LPCAT3, iPLA2β and GPX4 (western blot); iii) formation of 15LOX/PEBP1 complexes (dual object recognition); and iv) GSH levels (fluorescent assay) will be performed as follows. An established model of in vitro TBI, severe mechanical stretch injury in primary cortical neurons, can be used. In brief, cortical neurons are cultured on 0.05% poly-D-lysine hydrobromide coated silicone substrate wells, and subjected to a computer controlled quantifiable mechanical insult by displacing the silicone substrate over a hollowed platform. In vivo TBI is induced by severe CCI (6-mm impactor tip, velocity of ±0.2 m/secs, deformation depth of 2.5 mm, impact duration of 50 msecs) to left parietal cortex in male and female PND 17 rats. To maximize rigor and reproducibility, animals are assigned to either sham (anesthesia and craniotomy) or CCI groups by block randomization. To ensure appropriate sample size for robustness, power analyses are performed in each experimental context. A sample size of 5 is preferred to detect a 25% difference in PE-OOH between CCI and control based on standard deviation observed in the experiments with an alpha of 0.05 and power of 0.80. Group assignments are blinded to the investigators who perform biochemical and histological endpoints. Statistical differences are analyzed using one-way ANOVA with post-hoc comparisons between groups if overall p<0.05 as appropriate. To address biological variability, both sexes are included.
Histological outcome assessment. Brains are quantitatively analyzed for total number of specific cell types and lesion volume using unbiased stereology as described. Diagnostic of ferroptosis in vivo are: 1) accumulation of doubly and triply oxygenated AA-PE species; 2) increased ACSL4; 3) decreased GPX4 activity or deficiency of GSH; 4) increased activity and expression of 15LOX; and 5) high levels of 15LOX-PEBP1 co-localization detectable by dual object recognition. […] TUNEL staining is used to quantify cell death. TUNEL is commonly used to detect apoptotic cells. However, cells undergoing other types of regulated death, including ferroptosis, are also TUNEL positive. In order to determine the apoptotic cell death, staining with cleaved caspase-3 antibody is performed.
Neurocognitive function is assessed by novel object recognition (NOR) and MWM (Morris Water Maze) tests. For NOR testing, rat is placed in a small enclosure with two similar objects and allowed to explore for a 35 min habituation phase. […] Percent time exploring original vs. novel object is recorded (2 min max). […] Visible platform performance and memory retention in a single probe trial on d17 are assessed. […]

Row | Compound | AA-PE oxidation | functional deficits in MWM task | hippocampal TUNEL positivity
20 | O=c1cc(-c2ccccc2)oc2cc(O)c(O)c(O)c12 [baicalein] | decreased | attenuated | attenuated

Same assay, conditions: i.c.v. administration after CCI, 24 h post-CCI

Row | Compound | neurodegeneration assessed by FJB positivity
21 | CCC/C=C/C/C=C/C=C/C=N/NN=O [Triacsin C] | attenuated neurodegeneration

System: neurons
Assay: Severe mechanical stretch injury in neurons
Format: cell-based, rat
Details: 3-4 psi; Fer-1 0.4 μM, Triacsin C 10 μM, baicalein 5 μM
Description: Mean+SD, N=4/group, *p<0.05 vs 0 h. […] Mean±SD, N=3-4/group, *p<0.05 vs control, #p<0.05 vs vehicle. […] Mean+SD, N=4/group, *p<0.05 vs vehicle.
as §1

Row | Compound | cell death after severe mechanical stretch injury
22 | CCOC(=O)c1ccc(NC2CCCCC2)c(N)c1 [Fer-1] | rescued
23 | CCC/C=C/C/C=C/C=C/C=N/NN=O [Triacsin C] | rescued
24 | O=c1cc(-c2ccccc2)oc2cc(O)c(O)c(O)c12 [baicalein] | rescued
